{"source": "patent US5851556A", "about": "“Use of a salt of an alkaline-earth metal as TNF-A or substance P inhibitor in a topical composition and composition obtained” (Societe L'Oreal S.A., priority 1995, dated 1998)", "key": {"[1]": {"tested_on": "substance P", "test": "release of substance P caused by antidromic stimulation of the sciatic nerve, visualized with Evans blue", "assay_type": "in vivo", "details": "for % inhibition relative to the control / μg/ml of Evans blue: 1 μmol; for μg/ml of Evans blue: control vehicle 8.19 ± 0.83", "text": "The test consisted in determining the activity of the various compounds on the release of substance P, caused by antidromic stimulation of the sciatic nerve. This release is visualized by staining with a dye (Evans blue). The greater the quantity of substance P released, the more intense the colour. In other words, the greater the inhibitory effect produced on this release by the substance P antagonist, the less intense the colour."}, "[2]": {"tested_on": "TNF-alpha", "test": "TNF-alpha secretion by human monocytes (U937 line) stimulated by phorbol ester (PMA)", "assay_type": "cell-based", "details": "U937, PMA 10 nM, 48 hours; for % inhibition of TNF-alpha secretion induced by PMA: mean of 3 measurements", "method": "This test is performed on human monocytes (U937 line) stimulated by a phorbol ester (PMA) according to the method described by Schindler et al (Correlations and interactions in the production of interleukin-6 (IL-6), IL-1, and Tumor Necrosis Factor (TNF) in human blood mononuclear cells: IL-6 suppresses IL-1 and TNF. Blood 75: 40-47 (1990)).\nThe phorbol ester (PMA) naturally stimulates the synthesis and/or the secretion of TNF-alpha by human monocytes in culture.\nThe activity of the molecules is evaluated according to their ability to reduce or even eliminate this TNF-alpha secretion.\nThe cells (monocytes) are incubated in the presence of PMA at the concentration of 10 nM for 48 hours at 37° C. The quantities of TNF-alpha secreted are quantified by immuno-enzymatic assay ([…]) with the aid of commercially available kits.\nEach molecule is tested at 3 different concentrations (10^-5, 10^-4 and 10^-3 M) and during each experiment, a reference molecule (dexamethasone) is studied at 7 concentrations as internal standard.\nThe results are expressed as percentage inhibition relative to the positive control (without test molecule) after subtracting the background noise. A recapitulative Table 3 groups together the mean inhibitory effects obtained with the compounds. (The results expressed in % inhibition; they are the mean of 3 measurements)."}}, "data": [{"smiles": "O=[N+]([O-])[O-].O=[N+]([O-])[O-].[Ca+2]", "note": "[Ca(NO3)2, calcium nitrate]", "values": [{"measurement": "inhibitory activity on the release of substance P", "setting": "[1]; Table 1, salts at 1 μmol", "value": "does not have any activity at all"}, {"measurement": "inhibitory activity on the release of substance P", "setting": "[1]; Table 2, strontium salts 1 μmol, calcium salt 10 μmol", "value": "has no activity at all"}]}, {"smiles": "[Ca+2].[Cl-].[Cl-]", "note": "[CaCl2,7H2 O, calcium chloride]", "values": [{"measurement": "% inhibition of TNF-alpha secretion induced by PMA", "setting": "[2]; 10^-3 M", "value": 67, "unit": "%"}, {"measurement": "% inhibition of TNF-alpha secretion induced by PMA", "setting": "[2]; 10^-4 M", "value": 22, "unit": "%"}, {"measurement": "% inhibition of TNF-alpha secretion induced by PMA", "setting": "[2]; 10^-5 M", "value": 19, "unit": "%"}]}, {"smiles": "[Cl-].[Cl-].[Mg+2]", "note": "[MgCl2, magnesium chloride]", "values": [{"measurement": "% inhibition of TNF-alpha secretion induced by PMA", "setting": "[2]; 10^-3 M", "value": 70, "unit": "%"}, {"measurement": "% inhibition of TNF-alpha secretion induced by PMA", "setting": "[2]; 10^-4 M", "value": 12, "unit": "%"}]}, {"smiles": "O=[N+]([O-])[O-].O=[N+]([O-])[O-].[Sr+2]", "note": "[Sr(NO3)2, strontium nitrate]", "values": [{"measurement": "% inhibition of TNF-alpha secretion induced by PMA", "setting": "[2]; 10^-3 M", "value": 75, "unit": "%"}, {"measurement": "% inhibition of TNF-alpha secretion induced by PMA", "setting": "[2]; 10^-4 M", "value": 28, "unit": "%"}, {"measurement": "% inhibition relative to the control", "setting": "[1]; Table 1", "value": 41, "unit": "%"}, {"measurement": "μg/ml of Evans blue", "setting": "[1]; Table 1", "value": "4.84 ± 0.6", "unit": "µg/mL"}, {"measurement": "% inhibition relative to the control", "setting": "[1]; Table 2", "value": 71, "unit": "%"}]}, {"smiles": "[Cl-].[Cl-].[Sr+2]", "note": "[SrCl2 7H2 O, strontium chloride]", "values": [{"measurement": "% inhibition of TNF-alpha secretion induced by PMA", "setting": "[2]; 10^-3 M", "value": 54, "unit": "%"}, {"measurement": "% inhibition of TNF-alpha secretion induced by PMA", "setting": "[2]; 10^-5 M", "value": 14, "unit": "%"}]}, {"smiles": "[Cl-].[Cl-].[Sr+2]", "note": "[SrCl2, strontium chloride]", "values": [{"measurement": "% inhibition relative to the control", "setting": "[1]; Table 1", "value": 37, "unit": "%"}, {"measurement": "μg/ml of Evans blue", "setting": "[1]; Table 1", "value": "5.13 ± 0.9", "unit": "µg/mL"}, {"measurement": "% inhibition relative to the control", "setting": "[1]; Table 2", "value": 57, "unit": "%"}]}, {"smiles": "C[C@@H]1C[C@H]2[C@@H]3CCC4=CC(=O)C=C[C@]4(C)[C@@]3(F)[C@@H](O)C[C@]2(C)[C@@]1(O)C(=O)CO", "note": "[dexamethasone, reference compound]", "values": [{"measurement": "IC50", "setting": "[2]; Homo sapiens, U-937, read-out: IC50 (50% reduction in the secretion, caused by PMA), reference molecule, 7 concentrations", "value": 4, "unit": "nM"}]}]}
